Data reported in PubChem BioAssay AID588780 (Sanford-Burnham Center for Chemical Genomics, 2011).
pIC50: −log10 of the molar value. The source made the active and inactive calls.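 The calls were made as follows: active = compounds whose fitted half-maximal concentration in the cell-protection dose series is at or below a set limit; inactive = the rest.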

System: H9c2 cardiomyocytes, 2-deoxyglucose stress, ATP luminescence, 2 h
Assay: H9c2 cell survival under 2-deoxyglucose stress – uHTS hits, dose response (AID 588780)

Row | SMILES | pIC50 | IC50
1 | O=C(CCCN1C(=O)c2cccc3cccc(c23)C1=O)N1CCN(c2ccccc2O)CC1 | 4.99 | 
2 | COc1ccc(-c2nn(-c3ccccc3)cc2C(=O)Nc2nccs2)cc1 | 4.92 | 
3 | COc1ccc(Br)cc1/C=N/NC(=O)CNC(=O)/C=C/c1ccccc1 |  | > 79 µM (inactive)
4 | O=C(CN1CCCCC1)Nc1nc(-c2ccc(F)c(F)c2)cs1 |  | 70.7 µM (inactive)
5 | O=C(CNC(=O)c1[nH]cnc1C(=O)NC(c1ccccc1)c1ccccc1)OCc1ccccc1 | 4.88 | 
6 | O=C(/C=C/c1ccc(Cl)c([N+](=O)[O-])c1)Nc1cccnc1 |  | > 79 µM (inactive)
7 | CCOC(=O)c1ccccc1NC(=O)CSc1ccc(-c2ccccn2)nn1 | 4.63 | 
8 | COc1cccc(-c2cnc3c(NC=O)cc(-c4ccc(O)c(OC)c4)cn23)c1 |  | > 79 µM (inactive)
9 | CCOC(=O)c1ccc(-c2ccc(C3Nc4ccccc4C(=O)N3O)o2)cc1 (stereo not drawn) | 4.69 | 
10 | COc1cc2oc3cc(C#Cc4ccc(N)cc4)ccc3c(=O)c2cc1OC |  | > 79 µM (inactive)
11 | Cn1c(=O)c2[nH]c(NN=Cc3cccc(Br)c3)nc2n(C)c1=O |  | > 79 µM (inactive)
12 | O=C(Nc1cc(S(=O)(=O)N2CCOCC2)ccc1N1CCCCC1)c1cc(-c2ccccn2)nc2ccccc12 |  | > 79 µM (inactive)
13 | COc1cc(C(=O)N/N=C/c2sc(N3CCOCC3)nc2-c2ccccc2)cc(OC)c1OC | 4.59 | 
14 | CN(CC(=O)Nc1cccc(F)c1)C(=O)CCCc1nc2ccccc2c(=O)[nH]1 |  | > 79 µM (inactive)
15 | CCN(CC(=O)Nc1cc(Cl)ccc1C)C(=O)CCc1nc2ccccc2c(=O)[nH]1 |  | > 79 µM (inactive)
16 | COc1ccccc1NS(=O)(=O)c1cc(NC(=O)Cc2n[nH]c(=O)c3ccccc23)ccc1Cl | 4.61 | 
17 | Cc1ccc(N=Cc2cc(Cl)cc(Cl)c2O)nc1 |  | > 79 µM (inactive)
18 | Cc1cc(C)c(C)c(S(=O)(=O)N2CCC(C(=O)NNC(=O)c3ccccc3O)CC2)c1C |  | > 79 µM (inactive)
19 | COc1cccc(/C=N/NC(=O)c2[nH]c(C)c(C(=O)N/N=C/c3cccc(OC)c3)c2C)c1 | 4.93 | 
20 | O=C(NCc1ccco1)c1cnn2c(C(F)(F)F)cc(-c3cccs3)nc12 |  | > 79 µM (inactive)
21 | O=c1cc(CSc2nc3ccccc3c(=O)[nH]2)c2ccc(O)cc2o1 |  | > 79 µM (inactive)
22 | O=C(Nc1ccc2nc(N3CCOCC3)sc2c1)c1cc2ccccc2o1 |  | > 79 µM (inactive)
23 | COc1ccc(OC)c(NC(=O)COC(=O)c2c3c(nc4ccccc24)CCCC3)c1 |  | > 79 µM (inactive)
24 | COc1ccc(C(=O)O/N=C(/c2ccccc2)c2ccncc2)cc1OC |  | > 79 µM (inactive)

Row | SMILES | pIC50 | IC50
25 | Cc1ncc(CO)c2cc(C(=O)Nc3ccccc3Cl)c(=Nc3cccc(C(N)=O)c3)oc12 |  | > 79 µM (inactive)
26 | Cc1ccc(N2C(=O)CS/C2=C(\C(Cl)=C(Cl)Cl)[N+](=O)[O-])cc1 |  | > 79 µM (inactive)
27 | COc1ccc2oc(C(=O)Nc3ccc(N4CCOCC4)cc3)c(C)c2c1 |  | > 79 µM (inactive)
28 | COc1ccc(C(C(=O)NC2CCCC2)N(C(=O)c2snc(C(N)=O)c2N)c2cccc(O)c2)cc1 (stereo not drawn) |  | > 79 µM (inactive)
29 | Cc1ccc(NS(=O)(=O)c2cc(-c3n[nH]c(=O)c4ccccc34)ccc2C)cc1 |  | > 79 µM (inactive)
30 | COc1ccc([N+](=O)[O-])cc1NC(=O)C(C)OC(=O)Cn1[nH]c(=O)c2ccccc2c1=O (stereo not drawn) |  | 40 µM (inactive)
31 | O=CNc1cc(-c2ccc(C(=O)NC3CC3)cc2)cn2c(-c3ccccc3)cnc12 | 4.92 | 
32 | COc1ccc(/C=N/NC(=O)c2cccnc2)cc1CN1CCc2ccccc2C1 |  | > 79 µM (inactive)
33 | O=C(CCCSc1nc2sc3c(c2c(=O)[nH]1)CCC3)NCCCO |  | > 79 µM (inactive)
34 | COc1ccccc1NC(=O)c1ccc(NC(=O)Cc2n[nH]c(=O)c3ccccc23)cc1 |  | > 79 µM (inactive)
35 | O=C(Oc1ccc(N(Cc2cccs2)C2=NS(=O)(=O)c3ccccc32)cc1)c1ccccc1Cl |  | > 79 µM (inactive)
36 | COc1cc(-c2cc(NC(C)=O)c3ncc(-c4ccc(F)cc4)n3c2)cc(OC)c1OC |  | > 79 µM (inactive)
37 | O=C(CSC1=NNC(c2ccccn2)S1)Nc1cccc(Cl)c1 (stereo not drawn) |  | > 79 µM (inactive)
38 | O=C(C[C@H]1C/C=C\CC[C@H](Cc2ccc(F)cc2)C(=O)O[C@H](c2ccccc2)CNC1=O)N[C@H](CO)Cc1ccccc1 |  | > 79 µM (inactive)
39 | CCOCc1c(C(=O)NC2=Nc3ccccc3NC(CC)=C2C(=O)OCC)oc2ccccc12 |  | > 79 µM (inactive)
40 | CCOC(=O)c1cccc(C2=C(CNC(=O)c3cccnc3)[C@H]3CC[C@@H](C2)N3Cc2ccccc2)c1 |  | > 79 µM (inactive)
41 | COc1cc(/C=C/C(=O)OCC(=O)N2c3ccccc3NC(=O)C2(C)C)cc(OC)c1OC |  | > 79 µM (inactive)
42 | Cc1sc2nc(SCC(=O)N3CCOCC3)[nH]c(=O)c2c1C |  | > 79 µM (inactive)
43 | CC(OC(=O)CCc1nc2ccccc2c(=O)[nH]1)C(=O)Nc1ccc2c(c1)OCO2 (stereo not drawn) |  | > 79 µM (inactive)
44 | O=C(Cc1n[nH]c(=O)c2ccccc12)NCc1ccccn1 |  | > 79 µM (inactive)
45 | COc1ccc(-c2cc(NC(C)=O)c3ncc(-c4cccc(C(C)=O)c4)n3c2)cc1OC | 5.12 | 
46 | O=c1c2ccccc2nc(CSc2ncnc3nc[nH]c23)n1-c1ccc(Cl)c(Cl)c1 |  | > 79 µM (inactive)
47 | CCN(CC(=O)Nc1c(F)cccc1F)C(=O)Cc1n[nH]c(=O)c2ccccc12 |  | > 79 µM (inactive)
48 | COc1ccc(-c2cc(C(=O)N3CCN(c4ccccc4)CC3)c3ccccc3n2)cc1OC |  | > 79 µM (inactive)
